According to patent publication US4328242A, “α-(3,4,5-Trimethoxyhenzoyl)thiopropionyl-glycine” (Ausoria Farmaceutici S.r.l., priority 1980, dated 1982):
Read-outs that look alike come from different tables or passages of the source.

Assays:
[1] = Solubility; assay type: physicochemical
Source text: The structure of the compound is confirmed by analytical and spectroscopic analysis, specifically IR and NMR spectra. The compound is in the form of a white micro-cyrstalline powder, odorless and almost tasteless. It is soluble in a saturated solution of sodium bicarbonate and in other basic solutions. The substance is insoluble in water, soluble in warm ethanol.

[2] = Stability to light; assay type: physicochemical; conditions: powder form, light of a 60 watt lamp, three months
[3] = system: guinea pigs; assay: Antibronchospastic activity, histamine aerosol; assay type: in vivo; conditions: oral, rectal or inhalation, 200 and 400 mg/kg
Source text: Histamine administered in the form of an aerosol has caused in guinea pigs symptoms of broncho-spasm accompanied by convulsions, irreversible collapse and death.

[4] = system: rats; assay: Chronic toxicity in rats; assay type: in vivo; conditions: 24 weeks, 125 and 250 mg/kg oral, 200 mg/kg by inhalation
Procedure: (§1) The chronic toxicity of TBPG has been investigated in rats and dogs treated for a period of 24 weeks with 125 mg/kg and 250 mg/kg by the oral route and 200 mg/kg by inhalation.

[5] = system: guinea pigs; assay: Protective activity in subacute bronchitis induced by inhalation of citric acid; assay type: in vivo; conditions: 7.5% citric acid inhalation, oral, rectal or inhalation, 50 and 200 mg/kg, two weeks
[6] = Isothermic (accelerated) stability according to the method of Garret, TLC; assay type: physicochemical
Procedure: The tests of accelerated stability have been carried out with the substance in powder form, that is in glass vials, hermetically closed with a plastic screw cap and also with the substance dissolved in water, that is 500 mg in 10 cc in a transparent glass container of 20 cc capacity closed with a plastic screw cap.
The production of impurities, if any, due to degradation of the substance, has been determined by means of TLC.

[7] = system: dogs; assay: Chronic toxicity in dogs; assay type: in vivo; conditions: 24 weeks, 125 and 250 mg/kg oral, 200 mg/kg by inhalation
Procedure: as §1

[8] = system: rats; assay: Protective action on chronic bronchitis induced by inhalation of SO2; assay type: in vivo; conditions: SO2 aerosol, 100 and 400 mg/kg oral, rectal and inhalation, two weeks
Procedure: Bronchopulmonary lesions were induced in the animals by aerosolization of SO2. The animals were then treated for two weeks with TBPG in the dosage of 100 and 400 mg/kg by the oral route, rectal route and by inhalation.

[9] = system: Mice; assay: Acute toxicity in mice; assay type: in vivo; conditions: 20 tested
[10] = Acute toxicity in mice; assay type: in vivo; conditions: mouse, in vivo; for mortality at 240 h: read-out: % Death; for LD50 at 240 h: 10 days observation, probits, read-out: DL50 mg/kg (Confidential Limits)
[11] = Clinical tolerance with respect to gastric reactions; conditions: in vivo

COc1cc(C(=O)SC(C)C(=O)NCC(=O)O)cc(OC)c1OC (stereo not drawn) [TBPG, α-(3,4,5-trimethoxybenzoyl)thiopropionylglycine]
solubility ([1]; saturated solution of sodium bicarbonate and other basic solutions): soluble | solubility ([1]; warm ethanol): soluble | solubility ([1]; water): insoluble | stability to light [2]: undergoes no change | period of time between administration of the histamine aerosol and appearance of bronchospastic symptoms [3]: increased very substantially | chronic toxicity (symptoms, behavior, deaths, body growth, hematology, hepatic and renal functions, organs) [4]: totally innocuous | mortality index [5]: substantially reduced | protective action on bronchial conditions (macro and micro examination of the lungs) [5]: effective protective action in proportion to the dose | Chromatographic Impurities ([6]; Powder, 60°, 320 hours): Absent | Chromatographic Impurities ([6]; Powder, 70°, 120 hours): Absent | Chromatographic Impurities ([6]; Powder, 70°, 240 hours): Absent | Chromatographic Impurities ([6]; Powder, 80°, 45 hours): Absent | Chromatographic Impurities ([6]; Powder, 80°, 180 hours): Absent | Chromatographic Impurities ([6]; Solution (500 mg in 10 cc water), 60°, 0 hours): Absent | Chromatographic Impurities ([6]; Solution (500 mg in 10 cc water), 60°, 320 hours): Absent | degraded at 640 h ([6]; Solution (500 mg in 10 cc water), 60°, 640 hours, read-out: Chromatographic Impurities): 0.5% | degraded at 960 h ([6]; Solution (500 mg in 10 cc water), 60°, 960 hours, read-out: Chromatographic Impurities): 0.7% | degraded at 1280 h ([6]; Solution (500 mg in 10 cc water), 60°, 1280 hours, read-out: Chromatographic Impurities): 1.2% | degraded at 1600 h ([6]; Solution (500 mg in 10 cc water), 60°, 1600 hours, read-out: Chromatographic Impurities): 1.3% | Chromatographic Impurities ([6]; Solution (500 mg in 10 cc water), 70°, 180 hours): Absent | degraded at 240 h ([6]; Solution (500 mg in 10 cc water), 70°, 240 hours, read-out: Chromatographic Impurities): 1.1% | degraded at 480 h ([6]; Solution (500 mg in 10 cc water), 70°, 480 hours, read-out: Chromatographic Impurities): 1.2% | Chromatographic Impurities ([6]; Solution (500 mg in 10 cc water), 80°, 45 hours): Absent | degraded at 90 h ([6]; Solution (500 mg in 10 cc water), 80°, 90 hours, read-out: Chromatographic Impurities): 1.2% | degraded at 120 h ([6]; Solution (500 mg in 10 cc water), 80°, 120 hours, read-out: Chromatographic Impurities): 1.3% | chronic toxicity (symptoms, behavior, deaths, body growth, hematology, hepatic and renal functions, organs) [7]: totally innocuous | protection of the bronchi and lungs (bronchopulmonary lesions and mortality) [8]: significant action in the protection of the bronchi and lungs | No. of Animals Dead ([9]; i.p., 1500 mg/kg): 0 | No. of Animals Dead ([9]; i.p., 2000 mg/kg): 8 | No. of Animals Dead ([9]; i.p., 2500 mg/kg): 10 | No. of Animals Dead ([9]; i.p., 3000 mg/kg): 13 | No. of Animals Dead ([9]; i.p., 3500 mg/kg): 18 | No. of Animals Dead ([9]; orally, 3000 mg/kg): 1 | No. of Animals Dead ([9]; orally, 4000 mg/kg): 6 | No. of Animals Dead ([9]; orally, 5000 mg/kg): 10 | No. of Animals Dead ([9]; orally, 6000 mg/kg): 15 | No. of Animals Dead ([9]; orally, 7000 mg/kg): 18 | mortality at 240 h ([10]; ip, 1500 mg/kg): 0% | mortality at 240 h ([10]; ip, 2000 mg/kg): 40% | mortality at 240 h ([10]; ip, 2500 mg/kg): 50% | mortality at 240 h ([10]; ip, 3000 mg/kg): 65% | mortality at 240 h ([10]; ip, 3500 mg/kg): 90% | LD50 at 240 h ([10]; ip, 95% limits (2192-2963)): 2530 mg/kg | mortality at 240 h ([10]; po, orally, 3000 mg/kg): 5% | mortality at 240 h ([10]; po, orally, 4000 mg/kg): 30% | mortality at 240 h ([10]; po, orally, 5000 mg/kg): 50% | mortality at 240 h ([10]; po, orally, 6000 mg/kg): 75% | mortality at 240 h ([10]; po, orally, 7000 mg/kg): 90% | LD50 at 240 h ([10]; po, orally, 95% limits (4539-5254)): 4860 mg/kg | clinical tolerance with respect to gastric reactions [11]: optimum clinical tolerance
